Results from patent US20240101576A1, “HETEROCYCLIC INHIBITORS OF EGFR AND/OR HER2, FOR USE IN THE TREATMENT OF CANCER” (Scorpion Therapeutics, Inc., priority 2020, published 2024).

Columns and labels:
Format in all cases: cell-based
EGFR WT (Ba/F3 cells) = molecular target: T1, EGFR WT (Ba/F3 cells) (Homo sapiens, UniProt P00533); test: Inhibitor activity on EGFR-dependent cell growth (CellTiter-Glo, 72 h), Ba/F3 EGFR WT; settings: read-out: BaF3 WT IC50
T1 construct: expressed in transfected cells; host or cells: Ba/F3 (murine pro-B cells), retroviral transduction, puromycin selection, maintained with EGF
How it was run: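 This growth assay used Ba/F3 cells that depend on wild-type EGFR and are kept in EGF without IL3. Compounds were made up as 10 mM DMSO stocks and diluted 3-fold over 10 points. 120 nL went onto 600 cells/well. After 72 hours, 40 μL CellTiter-Glo was added and luminescence read on EnVision after 30 min.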

[1] = molecular target: T2, EGFR exon 20 NPG Ins D770_N771 (Ba/F3 cells) (Homo sapiens, UniProt P00533, INS770NPG); test: Inhibitor activity on EGFR-dependent cell growth (CellTiter-Glo, 72 h), Ba/F3 EGFR exon 20 NPG Ins; settings: read-out: BaF3 NPG IC50
T2 construct: expressed in transfected cells; host or cells: Ba/F3 (murine pro-B cells), retroviral transduction, puromycin selection, IL3-independent pool
How it was run: (§1)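 IC50s derive from a sigmoidal dose–response fit of CellTiter-Glo signal. The signal was normalised between […]-treated cells and cell-free medium. Ba/F3 mutant-EGFR cells, seeded at 400–800/well depending on the line, had 72 h of exposure to a 10-point, 3-fold compound series.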

[2] = molecular target: T2, EGFR exon 20 NPG Ins D770_N771 (Ba/F3 cells); test: Inhibitor activity on EGFR phosphorylation (pEGFR AlphaLISA, 2 h), Ba/F3 EGFR exon 20 NPG Ins
Source text: Example B. Inhibitor Activity on EGFR phosphorylation (pEGFR)
EGFR mutant Ba/F3 cells were generated by transduction with retrovirus containing vectors expressing EGFR L858R, EGFR exon 19del, EGFR L858R/C797S, EGFR exon 20 NPG Ins D770_N771, EGFR exon 20 ASV Ins V769_D770, or EGFR exon 20 SVD Ins D770_N771 genes along with a puromycin selection marker. Transduced cells are selected with puromycin for 7 days and are then be transferred into culture media without Interleukin 3 (IL3). Surviving cells are confirmed to express EGFR by Western blot and maintained as a pool. CUTO14 cells were obtained from Dr. Robert C. Doebele at the University of Colorado. The IC50 date are included in Table 6 and Table 7.
1.1 Cells are harvested from flask into cell culture medium and the cell number counted.
1.2 Cells are diluted with culture medium to the desired density and 40 μL of cell suspension is added into each well of 384-well cell culture plate and the seeding density is 50K cells/well (Ba/F3) or 12.5K cells/well (CUTO14).
2 Compound Preparation and Treatment
2.1 Test compounds are dissolved to 10 mM in a DMSO stock solution. 45 μL of stock solution is transferred to a 384 polypropylene plate (pp-plate). Perform 3-fold, 10-point dilution via transferring 15 μL compound into 30 μL DMSO using a TECAN (EVO200) liquid handler.
2.2 Spin plates at room temperature at 1,000 RPM for 1 minute.
2.3 Transfer 5 nL of diluted compound from compound source plate into the cell plate.
2.4 After compound treatment for 2 hours, perform pEGFR detection by AlphaLISA for compound treatment plates as described in “Detection” section.
3 Detection by pEGFR AlphaLISA (Perkin-Elmer)
3.1 Plates are removed from incubators and equilibrated at room temperature for 10 minutes, and media was removed
3.2 10 μL of lysis buffer is added and plates shaken at 600 rpm for 1 hr.
3.3 Prepare acceptor mix just before use and dispense 5 μL of acceptor mix to all the wells. Shake 350 rpm for Ihr in the dark
3.4 Prepare donor mix under low light conditions prior to use. Dispense 5 μL of donor mix to all the wells. Mix well on the shaker, seal and wrap in aluminum foil and incubate 1.5 hrs at room temperature in the dark
3.5 Transfer 18.5 μL mixture to OptiPlate 384, and read using an Envision. The IC50 date were included in Table 6 and Table 7.

[3] = molecular target: T3, EGFR exon 20 ASV Ins V769_D770 (Ba/F3 cells) (Homo sapiens, UniProt P00533, INS769ASV); test: Inhibitor activity on EGFR phosphorylation (pEGFR AlphaLISA, 2 h), Ba/F3 EGFR exon 20 ASV Ins; settings: EGFR phosphorylation, AlphaLISA, 2 hours; read-out: ASV IC50 (pEGFR)
T3 construct: expressed in transfected cells; host or cells: Ba/F3 (murine pro-B cells), retroviral transduction, puromycin selection, IL3-independent pool
How it was run: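 IC50 values reflect inhibition of cellular EGFR phosphorylation, measured by AlphaLISA in lysates. Engineered Ba/F3 pools expressing mutant EGFR, selected with puromycin and cultured IL3-free, or CUTO14 cells, were exposed to compound for 2 hours.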

[4] = molecular target: T3, EGFR exon 20 ASV Ins V769_D770 (Ba/F3 cells); test: Inhibitor activity on EGFR-dependent cell growth (CellTiter-Glo, 72 h), Ba/F3 EGFR exon 20 ASV Ins; settings: read-out: BaF3 ASV IC50
How it was run: as §1

[5] = molecular target: T4, EGFR exon 20 SVD Ins D770_N771 (Ba/F3 cells) (Homo sapiens, UniProt P00533, INS770SVD); test: Inhibitor activity on EGFR-dependent cell growth (CellTiter-Glo, 72 h), Ba/F3 EGFR exon 20 SVD Ins; settings: read-out: BaF3 SVD IC50
T4 construct: expressed in transfected cells; host or cells: Ba/F3 (murine pro-B cells), retroviral transduction, puromycin selection, IL3-independent pool
How it was run: as §1

[6] = molecular target: T5, EGFR exon 20 FQEA Ins A763_V764 (Ba/F3 cells) (Homo sapiens, UniProt P00533, INS763FQEA); test: Inhibitor activity on EGFR-dependent cell growth (CellTiter-Glo, 72 h), Ba/F3 EGFR exon 20 FQEA Ins; settings: read-out: BaF3 FQEA IC50
T5 construct: expressed in transfected cells; host or cells: Ba/F3 (murine pro-B cells), retroviral transduction, puromycin selection, IL3-independent pool
How it was run: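 Cell viability was measured by CellTiter-Glo after a three-day treatment. The IL3-free Ba/F3 lines carried L858R, L858R/C797S, exon 19 deletion or FQEA insertion EGFR and were seeded at 400, 600, 800 and 800 cells/well respectively.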

T2 sequence (P00533 with tags, fused parts or gaps INS770NPG): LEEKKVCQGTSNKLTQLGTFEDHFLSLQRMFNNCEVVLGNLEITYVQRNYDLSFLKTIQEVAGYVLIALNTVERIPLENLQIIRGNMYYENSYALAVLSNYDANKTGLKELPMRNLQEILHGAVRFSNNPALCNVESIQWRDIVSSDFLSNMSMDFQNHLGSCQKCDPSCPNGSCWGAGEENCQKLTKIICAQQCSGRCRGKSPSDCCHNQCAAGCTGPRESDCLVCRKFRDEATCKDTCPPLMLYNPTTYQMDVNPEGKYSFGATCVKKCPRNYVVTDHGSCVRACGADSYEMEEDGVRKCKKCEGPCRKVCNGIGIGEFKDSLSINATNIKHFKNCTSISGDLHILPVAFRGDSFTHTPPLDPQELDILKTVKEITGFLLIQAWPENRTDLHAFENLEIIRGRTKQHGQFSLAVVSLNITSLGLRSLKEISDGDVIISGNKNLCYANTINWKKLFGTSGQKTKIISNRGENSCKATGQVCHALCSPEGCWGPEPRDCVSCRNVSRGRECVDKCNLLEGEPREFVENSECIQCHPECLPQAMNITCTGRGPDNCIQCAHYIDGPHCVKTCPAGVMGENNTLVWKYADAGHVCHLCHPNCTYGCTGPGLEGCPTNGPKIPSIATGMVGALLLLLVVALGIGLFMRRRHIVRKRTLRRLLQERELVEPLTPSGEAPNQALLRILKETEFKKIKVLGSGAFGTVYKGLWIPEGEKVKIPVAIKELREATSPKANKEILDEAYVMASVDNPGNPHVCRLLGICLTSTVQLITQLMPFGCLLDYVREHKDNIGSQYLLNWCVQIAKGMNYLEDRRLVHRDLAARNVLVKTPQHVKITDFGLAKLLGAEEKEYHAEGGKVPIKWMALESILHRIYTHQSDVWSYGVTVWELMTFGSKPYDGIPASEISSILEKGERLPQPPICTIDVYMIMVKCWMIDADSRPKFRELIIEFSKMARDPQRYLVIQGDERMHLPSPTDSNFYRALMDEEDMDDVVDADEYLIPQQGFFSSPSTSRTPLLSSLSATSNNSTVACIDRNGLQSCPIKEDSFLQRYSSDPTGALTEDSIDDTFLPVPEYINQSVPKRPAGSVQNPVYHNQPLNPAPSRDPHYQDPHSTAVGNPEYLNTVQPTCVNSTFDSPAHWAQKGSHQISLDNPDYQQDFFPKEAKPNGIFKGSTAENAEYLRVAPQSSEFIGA
T1 sequence (P00533 25-1210): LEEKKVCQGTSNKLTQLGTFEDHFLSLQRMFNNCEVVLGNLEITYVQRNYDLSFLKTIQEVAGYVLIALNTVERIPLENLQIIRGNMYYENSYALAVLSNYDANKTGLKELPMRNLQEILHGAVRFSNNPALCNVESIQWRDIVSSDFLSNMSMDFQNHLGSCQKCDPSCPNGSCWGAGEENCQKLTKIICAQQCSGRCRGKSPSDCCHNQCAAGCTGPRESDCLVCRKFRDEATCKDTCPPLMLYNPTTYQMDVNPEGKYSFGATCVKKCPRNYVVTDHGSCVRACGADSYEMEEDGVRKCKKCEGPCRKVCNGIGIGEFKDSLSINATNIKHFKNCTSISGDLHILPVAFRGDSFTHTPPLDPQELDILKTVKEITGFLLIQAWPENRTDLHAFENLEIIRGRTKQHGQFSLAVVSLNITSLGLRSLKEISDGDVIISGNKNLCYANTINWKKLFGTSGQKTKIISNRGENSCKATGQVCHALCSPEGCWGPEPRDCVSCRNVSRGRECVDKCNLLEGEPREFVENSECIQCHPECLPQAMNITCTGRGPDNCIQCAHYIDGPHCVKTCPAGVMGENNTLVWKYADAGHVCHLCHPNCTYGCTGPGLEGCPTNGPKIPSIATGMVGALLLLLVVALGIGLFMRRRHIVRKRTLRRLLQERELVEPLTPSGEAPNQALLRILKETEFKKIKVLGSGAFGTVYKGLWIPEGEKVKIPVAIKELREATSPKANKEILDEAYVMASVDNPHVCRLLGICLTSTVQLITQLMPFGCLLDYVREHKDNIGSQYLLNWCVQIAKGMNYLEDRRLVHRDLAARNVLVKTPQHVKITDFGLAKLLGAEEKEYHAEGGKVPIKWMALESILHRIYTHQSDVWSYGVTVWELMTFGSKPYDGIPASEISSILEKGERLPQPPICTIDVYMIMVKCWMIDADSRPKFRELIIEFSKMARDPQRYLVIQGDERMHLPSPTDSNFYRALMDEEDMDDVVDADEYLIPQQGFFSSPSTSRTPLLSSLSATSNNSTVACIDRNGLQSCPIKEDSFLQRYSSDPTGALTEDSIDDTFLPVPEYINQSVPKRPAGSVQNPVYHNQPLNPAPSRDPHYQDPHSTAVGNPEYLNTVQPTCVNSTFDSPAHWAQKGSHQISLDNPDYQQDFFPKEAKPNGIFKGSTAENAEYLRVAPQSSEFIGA
T4 sequence (P00533 with tags, fused parts or gaps INS770SVD): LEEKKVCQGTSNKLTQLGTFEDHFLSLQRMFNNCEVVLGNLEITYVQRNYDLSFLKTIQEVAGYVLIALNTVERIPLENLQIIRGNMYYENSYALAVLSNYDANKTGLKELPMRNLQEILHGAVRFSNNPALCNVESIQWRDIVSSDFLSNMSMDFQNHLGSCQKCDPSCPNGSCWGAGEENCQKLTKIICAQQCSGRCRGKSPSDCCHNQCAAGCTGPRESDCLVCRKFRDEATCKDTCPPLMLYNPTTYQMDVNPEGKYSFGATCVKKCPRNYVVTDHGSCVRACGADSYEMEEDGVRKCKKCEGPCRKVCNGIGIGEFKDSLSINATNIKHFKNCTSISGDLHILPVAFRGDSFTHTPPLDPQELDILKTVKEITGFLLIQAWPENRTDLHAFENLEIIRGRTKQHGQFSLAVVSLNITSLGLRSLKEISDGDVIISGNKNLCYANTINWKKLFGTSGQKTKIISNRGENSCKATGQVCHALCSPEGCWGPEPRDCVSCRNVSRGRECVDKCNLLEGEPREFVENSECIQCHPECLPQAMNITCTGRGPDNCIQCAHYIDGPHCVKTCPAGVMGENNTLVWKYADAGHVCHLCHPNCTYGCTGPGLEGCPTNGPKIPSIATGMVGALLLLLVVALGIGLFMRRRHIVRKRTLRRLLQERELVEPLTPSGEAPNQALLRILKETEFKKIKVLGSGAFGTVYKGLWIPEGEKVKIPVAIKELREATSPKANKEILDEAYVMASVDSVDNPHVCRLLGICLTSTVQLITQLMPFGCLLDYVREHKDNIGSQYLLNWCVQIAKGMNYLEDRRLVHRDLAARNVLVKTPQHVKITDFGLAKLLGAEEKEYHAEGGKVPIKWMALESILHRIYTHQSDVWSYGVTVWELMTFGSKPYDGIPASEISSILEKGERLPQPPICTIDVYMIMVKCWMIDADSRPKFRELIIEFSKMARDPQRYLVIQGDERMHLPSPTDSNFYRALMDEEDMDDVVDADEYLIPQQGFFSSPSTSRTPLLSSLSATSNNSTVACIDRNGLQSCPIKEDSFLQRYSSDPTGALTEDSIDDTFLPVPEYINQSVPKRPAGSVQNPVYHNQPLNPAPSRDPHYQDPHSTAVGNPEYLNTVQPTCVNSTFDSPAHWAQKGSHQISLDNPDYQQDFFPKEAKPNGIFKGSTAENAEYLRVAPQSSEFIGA
T5 sequence (P00533 with tags, fused parts or gaps INS763FQEA): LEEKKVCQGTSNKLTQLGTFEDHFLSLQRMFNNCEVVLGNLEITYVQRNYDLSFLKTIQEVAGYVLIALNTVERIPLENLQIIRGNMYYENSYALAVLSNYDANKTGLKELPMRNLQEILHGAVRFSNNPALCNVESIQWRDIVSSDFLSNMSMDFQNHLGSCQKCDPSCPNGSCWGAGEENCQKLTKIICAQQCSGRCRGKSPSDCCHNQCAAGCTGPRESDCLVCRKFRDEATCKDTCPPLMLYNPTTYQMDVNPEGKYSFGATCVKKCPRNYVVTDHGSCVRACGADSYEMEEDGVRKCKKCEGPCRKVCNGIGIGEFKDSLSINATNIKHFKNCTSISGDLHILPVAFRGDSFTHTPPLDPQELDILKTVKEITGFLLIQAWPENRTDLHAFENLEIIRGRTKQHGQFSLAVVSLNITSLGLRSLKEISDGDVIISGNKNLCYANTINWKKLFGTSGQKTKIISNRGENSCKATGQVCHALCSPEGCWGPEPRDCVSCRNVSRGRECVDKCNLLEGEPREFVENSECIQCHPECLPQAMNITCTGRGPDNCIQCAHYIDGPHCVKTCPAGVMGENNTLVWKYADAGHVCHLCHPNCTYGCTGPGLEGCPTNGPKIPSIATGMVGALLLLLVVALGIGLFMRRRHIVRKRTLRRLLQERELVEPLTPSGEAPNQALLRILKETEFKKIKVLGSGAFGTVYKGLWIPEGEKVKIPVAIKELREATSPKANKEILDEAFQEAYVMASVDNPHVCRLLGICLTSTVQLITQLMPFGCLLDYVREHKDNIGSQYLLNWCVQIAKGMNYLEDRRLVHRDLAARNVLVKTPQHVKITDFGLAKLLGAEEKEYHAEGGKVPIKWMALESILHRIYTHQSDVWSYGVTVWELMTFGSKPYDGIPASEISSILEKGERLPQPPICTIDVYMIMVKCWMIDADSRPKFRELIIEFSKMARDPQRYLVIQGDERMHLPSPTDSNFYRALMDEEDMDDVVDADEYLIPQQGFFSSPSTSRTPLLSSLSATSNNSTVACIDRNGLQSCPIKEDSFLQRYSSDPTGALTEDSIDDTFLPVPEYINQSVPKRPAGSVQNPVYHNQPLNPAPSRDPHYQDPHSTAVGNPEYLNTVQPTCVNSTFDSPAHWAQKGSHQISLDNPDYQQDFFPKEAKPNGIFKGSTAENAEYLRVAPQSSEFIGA

Row | SMILES | IC50 (EGFR WT (Ba/F3 cells)) | IC50 [1] | IC50 [2] | IC50 [3] | IC50 [4] | IC50 [5] | IC50 [6]
1 | COc1c(F)cccc1Nc1c(-c2ccnc(N)c2F)[nH]c2c1C(=O)NCC2 [Compound 687, 2-(2-amino-3-fluoropyridin-4-yl)-3-[(3-fluoro-2-methoxyphenyl)amino]-1H,5H,6H,7H-pyrrolo[3,2-c]pyridin-4-one] | > 1 µM | 0.1 to 1 µM | < 0.1 µM | 0.1 to 1 µM | 0.1 to 1 µM | 0.1 to 1 µM | 0.1 to 1 µM
2 | CNc1nccc(-c2[nH]c3c(c2Nc2cccc(F)c2OC)C(=O)NCC3)n1 [Compound 691, 3-[(3-fluoro-2-methoxyphenyl)amino]-2-[2-(methylamino)pyrimidin-4-yl]-1H,5H,6H,7H-pyrrolo[3,2-c]pyridin-4-one] | 0.1 to 1 µM | 0.1 to 1 µM | < 0.1 µM | < 0.1 µM | 0.1 to 1 µM | 0.1 to 1 µM | 0.1 to 1 µM
3 | Cc1c(F)cccc1Nc1c(-c2ccnc(N)c2F)[nH]c2c1C(=O)NCC2 [Compound 692, 2-(2-amino-3-fluoropyridin-4-yl)-3-[(3-fluoro-2-methylphenyl)amino]-1H,5H,6H,7H-pyrrolo[3,2-c]pyridin-4-one] | 0.1 to 1 µM | 0.1 to 1 µM | < 0.1 µM | 0.1 to 1 µM | 0.1 to 1 µM | 0.1 to 1 µM | 0.1 to 1 µM
4 | CNc1nccc(-c2[nH]c3c(c2Nc2cccc(Cl)c2OC)C(=O)NCC3)n1 [compound 108] | 0.1 to 1 µM | < 0.1 µM | < 0.1 µM | < 0.1 µM | < 0.1 µM | < 0.1 µM | 0.1 to 1 µM
5 | CCc1c(F)cccc1Nc1c(-c2ccnc(N)n2)[nH]c2c1C(=O)NCC2 [compound 195] | 0.1 to 1 µM | 0.1 to 1 µM | < 0.1 µM | < 0.1 µM | 0.1 to 1 µM | 0.1 to 1 µM | 0.1 to 1 µM
6 | Nc1nccc(-c2[nH]c3c(c2Nc2cccc(F)c2F)C(=O)NCC3)n1 [compound 202] | 0.1 to 1 µM | 0.1 to 1 µM | < 0.1 µM | < 0.1 µM | 0.1 to 1 µM | 0.1 to 1 µM | 0.1 to 1 µM
7 | COc1c(Cl)cccc1Nc1c(-c2ccnc(C)n2)[nH]c2c1C(=O)NCC2 [compound 206] | 0.1 to 1 µM | 0.1 to 1 µM | < 0.1 µM | 0.1 to 1 µM | – | – | –
8 | COc1c(Cl)cccc1Nc1c(-c2ccnc(NC(C)=O)n2)[nH]c2c1C(=O)NCC2 [compound 220] | > 1 µM | 0.1 to 1 µM | < 0.1 µM | 0.1 to 1 µM | 0.1 to 1 µM | 0.1 to 1 µM | 0.1 to 1 µM
9 | Cc1c(F)cccc1Nc1c(-c2ccnc(N)n2)[nH]c2c1C(=O)NCC2 [compound 282] | 0.1 to 1 µM | 0.1 to 1 µM | < 0.1 µM | < 0.1 µM | – | – | –
10 | Nc1nccc(-c2[nH]c3c(c2Nc2ccccc2)C(=O)NCC3)n1 [compound 283] | 0.1 to 1 µM | 0.1 to 1 µM | < 0.1 µM | 0.1 to 1 µM | – | – | < 0.1 µM
11 | COc1c(Cl)cccc1Nc1c(-c2ccnc(Nc3cn(C)nn3)n2)[nH]c2c1C(=O)NCC2 [compound 511, 3-[(3-chloro-2-methoxyphenyl)amino]-2-{2-[(1-methyl-1,2,3-triazol-4-yl)amino]pyrimidin-4-yl}-1H,5H,6H,7H-pyrrolo[3,2-c]pyridin-4-one] | 0.1 to 1 µM | < 0.1 µM | < 0.1 µM | – | < 0.1 µM | < 0.1 µM | < 0.1 µM
12 | COc1ccc2nccc(-c3[nH]c4c(c3Nc3cccc(F)c3OC)C(=O)NCC43CCNCC3)c2n1 [compound 685] | 0.1 to 1 µM | 0.1 to 1 µM | < 0.1 µM | < 0.1 µM | – | – | –
13 | COc1c(Cl)cccc1Nc1c(-c2ccnc3ccc(OCC4CC(F)(F)C4)nc23)[nH]c2c1C(=O)NCC2 [compound 757, 3-[(3-chloro-2-methoxyphenyl)amino]-2-[6-[(3,3-difluorocyclobutyl)methoxy]-1,5-naphthyridin-4-yl]-1H,5H,6H,7H-pyrrolo[3,2-c]pyridin-4-one] | 0.1 to 1 µM | 0.1 to 1 µM | < 0.1 µM | – | < 0.1 µM | < 0.1 µM | < 0.1 µM

Other lines, results leading:

Row | IC50 (EGFR WT (Ba/F3 cells)) | IC50 [1] | IC50 [2] | IC50 [3] | IC50 [4] | IC50 [5] | IC50 [6] | SMILES
14 | < 0.1 µM | < 0.1 µM | < 0.1 µM | < 0.1 µM | – | – | – | CNc1ccc2nccc(-c3[nH]c4c(c3Nc3cccc(Cl)c3OC)C(=O)NCC4)c2n1 [Compound 152, 3-((3-chloro-2-methoxyphenyl)amino)-2-(6-(methylamino)-1,5-naphthyridin-4-yl)-1,5,6,7-tetrahydro-4H-pyrrolo[3,2-c]pyridin-4-one]
15 | < 0.1 µM | > 1 µM | 0.1 to 1 µM | > 1 µM | – | – | – | COc1c(F)cccc1Nc1c(-c2ncnc3cccnc23)[nH]c2c1C(=O)NCC2 [Compound 154, 3-((3-fluoro-2-methoxyphenyl)amino)-2-(pyrido[3,2-d]pyrimidin-4-yl)-1,5,6,7-tetrahydro-4H-pyrrolo[3,2-c]pyridin-4-one]
16 | < 0.1 µM | < 0.1 µM | < 0.1 µM | < 0.1 µM | < 0.1 µM | < 0.1 µM | < 0.1 µM | COCCNc1ccc2nccc(-c3[nH]c4c(c3Nc3cccc(Cl)c3OC)C(=O)NCC4)c2n1 [Compound 680, 3-[(3-chloro-2-methoxyphenyl)amino]-2-[6-[(2-methoxyethyl)amino]-1,5-naphthyridin-4-yl]-1H,5H,6H,7H-pyrrolo[3,2-c]pyridin-4-one; formic acid]
17 | < 0.1 µM | 0.1 to 1 µM | < 0.1 µM | < 0.1 µM | – | – | – | CNc1nccc(-c2[nH]c3c(c2Nc2cccc(F)c2C)C(=O)NCC3)n1 [Compound 690, 3-[(3-fluoro-2-methylphenyl)amino]-2-[2-(methylamino)pyrimidin-4-yl]-1H,5H,6H,7H-pyrrolo[3,2-c]pyridin-4-one]
18 | < 0.1 µM | < 0.1 µM | < 0.1 µM | < 0.1 µM | < 0.1 µM | < 0.1 µM | < 0.1 µM | COc1c(Cl)cccc1Nc1c(-c2ccnc(Nc3cnn(C)c3)n2)[nH]c2c1C(=O)NCC2 [compound 109]
19 | < 0.1 µM | < 0.1 µM | < 0.1 µM | – | < 0.1 µM | < 0.1 µM | < 0.1 µM | COc1cc2nccc(-c3[nH]c4c(c3Nc3cccc(Cl)c3OC)C(=O)NCC4)c2nc1OC [compound 730, 3-[(3-chloro-2-methoxyphenyl)amino]-2-(6,7-dimethoxy-1,5-naphthyridin-4-yl)-1H,5H,6H,7H-pyrrolo[3,2-c]pyridin-4-one]
